According to publication PMC4439194 (Biochimica et biophysica acta, 2014):

Molecular target: HmbR (Neisseria meningitidis, UniProt Q9JYA8)
Assay: UV-vis absorption and EPR of ferric heme-bound HmbR
Type: binding
Conditions: 500 mM imidazole, pH 7.4; sixth axial ligand of the bound ferric heme

For `c1c[nH]cn1` [imidazole], the “UV-vis absorption and EPR of ferric heme-bound HmbR” value was “change from pentacoordinate to hexacoordinate ligation upon addition of exogenous imidazole to ferric holoHmbR”.
